Assay results taken from ChEMBL document CHEMBL1201862, “PubChem BioAssay data set” (2004).
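How tested: cells in 96-well plates exposed to compound for 48 hours at five concentrations. GI50 marks 50% less growth.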 Activity calls are given as the source filed them. Rule as the data show it: active = GI50 up to about 1.1 µM and inactive = higher.

Tests used:
Assay in all cases: NCI tumour cell line growth inhibition, 48 h
COLO 205 = tested on: COLO 205
NCI-H460 = tested on: NCI-H460
OVCAR-3 = tested on: OVCAR-3
HT-29 = tested on: HT-29
HL-60 = tested on: HL-60
MCF7 = tested on: MCF7
KM12 = tested on: KM12
MDA-MB-435 = tested on: MDA-MB-435
K562 = tested on: K562
RPMI-8226 = tested on: RPMI-8226
A498 = tested on: A498
MDA-N = tested on: MDA-N
SR = tested on: SR
OVCAR-5 = tested on: OVCAR-5
SF-295 = tested on: SF-295
SNB-75 = tested on: SNB-75
SN12C = tested on: SN12C
T47D = tested on: T47D
RXF 393 = tested on: RXF 393
TK-10 = tested on: TK-10
DU-145 = tested on: DU-145
IGROV-1 = tested on: IGROV-1
Malme-3M = tested on: Malme-3M
SW-620 = tested on: SW-620
SF-539 = tested on: SF-539
HCT-116 = tested on: HCT-116
OVCAR-4 = tested on: OVCAR-4
NCI/ADR-RES = tested on: NCI/ADR-RES
SK-MEL-28 = tested on: SK-MEL-28
SF-268 = tested on: SF-268
UACC-257 = tested on: UACC-257
A549 = tested on: A549
PC-3 = tested on: PC-3
MOLT-4 = tested on: MOLT-4
BT-549 = tested on: BT-549
SK-OV-3 = tested on: SK-OV-3
HCC 2998 = tested on: HCC 2998
HOP-62 = tested on: HOP-62
LOX IMVI = tested on: LOX IMVI
UO-31 = tested on: UO-31
U-251 = tested on: U-251
HCT-15 = tested on: HCT-15
NCI-H23 = tested on: NCI-H23
M14 = tested on: M14
CAKI-1 = tested on: CAKI-1
ACHN = tested on: ACHN
UACC-62 = tested on: UACC-62
Hs-578T = tested on: Hs-578T
786-0 = tested on: 786-0
EKVX = tested on: EKVX
SNB-19 = tested on: SNB-19
SK-MEL-5 = tested on: SK-MEL-5
SK-MEL-2 = tested on: SK-MEL-2
CCRF-CEM = tested on: CCRF-CEM
MDA-MB-231 = tested on: MDA-MB-231
OVCAR-8 = tested on: OVCAR-8
HOP-92 = tested on: HOP-92
NCI-H522 = tested on: NCI-H522
NCI-H226 = tested on: NCI-H226

Cc1ccc(-c2cc(C(F)(F)F)nn2-c2ccc(S(N)(=O)=O)cc2)cc1 [CELECOXIB]
GI50 (COLO 205): 16.1 µM (inactive)
GI50 (NCI-H460): 15.8 µM (inactive)
GI50 (OVCAR-3): 17.6 µM (inactive)
GI50 (HT-29): 16.5 µM (inactive)
GI50 (HL-60): 14.8 µM (inactive)
GI50 (MCF7): 17.5 µM (inactive)
GI50 (KM12): 15.1 µM (inactive)
GI50 (MDA-MB-435): 17.5 µM (inactive)
GI50 (K562): 10.1 µM (inactive)
GI50 (RPMI-8226): 3.85 µM (inactive)
GI50 (A498): 15.1 µM (inactive)
GI50 (MDA-N): 17.1 µM (inactive)
GI50 (SR): 16.1 µM (inactive)
GI50 (OVCAR-5): 19.7 µM (inactive)
GI50 (SF-295): 16.6 µM (inactive)
GI50 (SNB-75): 15.6 µM (inactive)
GI50 (SN12C): 15.6 µM (inactive)
GI50 (T47D): 16.8 µM (inactive)
GI50 (RXF 393): 17.1 µM (inactive)
GI50 (TK-10): 18.8 µM (inactive)
GI50 (DU-145): 16.3 µM (inactive)
GI50 (IGROV-1): 15.4 µM (inactive)
GI50 (Malme-3M): 18.6 µM (inactive)
GI50 (SW-620): 16.9 µM (inactive)
GI50 (SF-539): 18.1 µM (inactive)
GI50 (HCT-116): 55 µM (inactive)
GI50 (OVCAR-4): 12.4 µM (inactive)
GI50 (NCI/ADR-RES): 16.2 µM (inactive)
GI50 (SK-MEL-28): 17.6 µM (inactive)
GI50 (SF-268): 16.9 µM (inactive)
GI50 (UACC-257): 19.7 µM (inactive)
GI50 (A549): 14.4 µM (inactive)
GI50 (PC-3): 13.4 µM (inactive)
GI50 (MOLT-4): 17.3 µM (inactive)
GI50 (BT-549): 18.5 µM (inactive)
GI50 (SK-OV-3): 18.3 µM (inactive)
GI50 (HCC 2998): 15.7 µM (inactive)
GI50 (HOP-62): 67.9 µM (inactive)
GI50 (LOX IMVI): 18.2 µM (inactive)
GI50 (UO-31): 14.8 µM (inactive)
GI50 (U-251): 16.1 µM (inactive)
GI50 (HCT-15): 15.9 µM
GI50 (NCI-H23): 17.1 µM (inactive)
GI50 (M14): 67.9 µM (inactive)
GI50 (CAKI-1): 19.6 µM (inactive)
GI50 (ACHN): 17.5 µM (inactive)
GI50 (UACC-62): 15.4 µM (inactive)
GI50 (Hs-578T): 18.5 µM (inactive)
GI50 (786-0): 37.1 µM (inactive)
GI50 (EKVX): 17.9 µM (inactive)
GI50 (SNB-19): 18 µM (inactive)
GI50 (SK-MEL-5): 14.8 µM (inactive)
GI50 (SK-MEL-2): 16.1 µM (inactive)
GI50 (CCRF-CEM): 14 µM (inactive)
GI50 (MDA-MB-231): 15.6 µM (inactive)
GI50 (OVCAR-8): 19.7 µM (inactive)

Cc1ccc(S(=O)(=O)N2CCC(C(=O)O)(c3ccccc3)CC2)cc1
GI50 (HOP-92): > 100 µM (inactive)
GI50 (COLO 205): > 100 µM (inactive)
GI50 (NCI-H460): > 100 µM (inactive)
GI50 (OVCAR-3): > 100 µM (inactive)
GI50 (HT-29): > 100 µM (inactive)
GI50 (HL-60): > 100 µM (inactive)
GI50 (MCF7): > 100 µM (inactive)
GI50 (KM12): > 100 µM (inactive)
GI50 (MDA-MB-435): > 100 µM (inactive)
GI50 (K562): > 100 µM (inactive)
GI50 (RPMI-8226): > 100 µM (inactive)
GI50 (A498): > 100 µM (inactive)
GI50 (NCI-H522): > 100 µM (inactive)
GI50 (MDA-N): > 100 µM (inactive)
GI50 (SR): > 100 µM (inactive)
GI50 (OVCAR-5): > 100 µM (inactive)
GI50 (SF-295): > 100 µM (inactive)
GI50 (SNB-75): > 100 µM (inactive)
GI50 (SN12C): > 100 µM (inactive)
GI50 (T47D): > 100 µM (inactive)
GI50 (RXF 393): > 100 µM (inactive)
GI50 (TK-10): > 100 µM (inactive)
GI50 (DU-145): > 100 µM (inactive)
GI50 (IGROV-1): > 100 µM (inactive)
GI50 (Malme-3M): > 100 µM (inactive)
GI50 (SW-620): > 100 µM (inactive)
GI50 (SF-539): > 100 µM (inactive)
GI50 (HCT-116): > 100 µM (inactive)
GI50 (OVCAR-4): > 100 µM (inactive)
GI50 (NCI/ADR-RES): > 100 µM (inactive)
GI50 (SK-MEL-28): > 100 µM (inactive)
GI50 (SF-268): > 100 µM (inactive)
GI50 (UACC-257): > 100 µM (inactive)
GI50 (A549): > 100 µM (inactive)
GI50 (PC-3): > 100 µM (inactive)
GI50 (MOLT-4): > 100 µM (inactive)
GI50 (BT-549): > 100 µM (inactive)
GI50 (SK-OV-3): > 100 µM (inactive)
GI50 (HOP-62): > 100 µM (inactive)
GI50 (LOX IMVI): > 100 µM (inactive)
GI50 (UO-31): > 100 µM (inactive)
GI50 (U-251): > 100 µM (inactive)
GI50 (HCT-15): > 100 µM
GI50 (NCI-H23): > 100 µM (inactive)
GI50 (M14): > 100 µM (inactive)
GI50 (CAKI-1): > 100 µM (inactive)
GI50 (ACHN): > 100 µM (inactive)
GI50 (UACC-62): > 100 µM (inactive)
GI50 (NCI-H226): > 100 µM (inactive)
GI50 (Hs-578T): > 100 µM (inactive)
GI50 (786-0): > 100 µM (inactive)
GI50 (EKVX): > 100 µM (inactive)
GI50 (SNB-19): > 100 µM (inactive)
GI50 (SK-MEL-5): > 100 µM (inactive)
GI50 (SK-MEL-2): > 100 µM (inactive)
GI50 (CCRF-CEM): > 100 µM (inactive)
GI50 (MDA-MB-231): > 100 µM (inactive)
GI50 (OVCAR-8): > 100 µM (inactive)

Cc1cnc2sn(-c3ccc(Br)cc3)c(=O)c2c1
GI50 (HOP-92): 26.9 µM (inactive)
GI50 (COLO 205): 26.8 µM (inactive)
GI50 (NCI-H460): 32.5 µM (inactive)
GI50 (OVCAR-3): 22.2 µM (inactive)
GI50 (HT-29): 28.9 µM (inactive)
GI50 (HL-60): 18.3 µM (inactive)
GI50 (MCF7): 30.3 µM (inactive)
GI50 (KM12): 74.8 µM (inactive)
GI50 (MDA-MB-435): 40 µM (inactive)
GI50 (RPMI-8226): 33.2 µM (inactive)
GI50 (NCI-H522): 2.37 µM (inactive)
GI50 (MDA-N): > 100 µM (inactive)
GI50 (SR): 40.7 µM (inactive)
GI50 (OVCAR-5): 44.2 µM (inactive)
GI50 (SF-295): 26.5 µM (inactive)
GI50 (SNB-75): 84.9 µM (inactive)
GI50 (SN12C): 59.6 µM (inactive)
GI50 (T47D): 13.4 µM (inactive)
GI50 (TK-10): 93.5 µM (inactive)
GI50 (DU-145): 50.5 µM (inactive)
GI50 (IGROV-1): 53.6 µM (inactive)
GI50 (Malme-3M): 15.1 µM (inactive)
GI50 (SW-620): 28.6 µM (inactive)
GI50 (SF-539): 31.3 µM (inactive)
GI50 (HCT-116): 42.8 µM (inactive)
GI50 (OVCAR-4): 26.2 µM (inactive)
GI50 (NCI/ADR-RES): 70.1 µM (inactive)
GI50 (SK-MEL-28): 27.7 µM (inactive)
GI50 (SF-268): 38.7 µM (inactive)
GI50 (UACC-257): 45.2 µM (inactive)
GI50 (A549): 36.6 µM (inactive)
GI50 (PC-3): 36.6 µM (inactive)
GI50 (MOLT-4): 30.4 µM (inactive)
GI50 (BT-549): 35 µM (inactive)
GI50 (SK-OV-3): 41.6 µM (inactive)
GI50 (HCC 2998): 22.7 µM (inactive)
GI50 (HOP-62): 27.7 µM (inactive)
GI50 (LOX IMVI): 23.3 µM (inactive)
GI50 (UO-31): 43.9 µM (inactive)
GI50 (U-251): 27.1 µM (inactive)
GI50 (HCT-15): 26.6 µM
GI50 (NCI-H23): 33 µM (inactive)
GI50 (M14): 41.2 µM (inactive)
GI50 (CAKI-1): 16.7 µM (inactive)
GI50 (ACHN): 35.6 µM (inactive)
GI50 (UACC-62): 33.4 µM (inactive)
GI50 (NCI-H226): 52 µM (inactive)
GI50 (Hs-578T): 30.7 µM (inactive)
GI50 (786-0): 37.5 µM (inactive)
GI50 (EKVX): 41.2 µM (inactive)
GI50 (SNB-19): 40.9 µM (inactive)
GI50 (SK-MEL-5): 42.6 µM (inactive)
GI50 (SK-MEL-2): > 100 µM (inactive)
GI50 (CCRF-CEM): 24.4 µM (inactive)
GI50 (MDA-MB-231): 30.5 µM (inactive)
GI50 (OVCAR-8): 62.5 µM (inactive)
